Reference: patent US8323669B2, “Polymer conjugate of taxane” (priority 2006, dated 2012)

Assays:
Format in all cases: in vivo, mouse (female CDF1 mice)
[1] = tested on: Mouse colon cancer, Colon26; assay: Antitumor effect of compound 4 (Test Example 5); details: single i.v. at maximum tolerance dose (compound 4 200 mg/kg as DTX, DTX 100 mg/kg)
Method: Mouse colon cancer, Colon26, maintained by serial subcutaneous subculture in mice was minced into about 2-mm square fragments, and these fragments were subcutaneously transplanted on the dorsal part of female CDF1 mice with a trocar. Seven days after tumor transplantation, the polymer conjugate of the present invention (compound 4) or the control drug (docetaxel, DTX) was intravenously administered once to the mouse tail vein at the maximum tolerance dose. The compound 4 was dissolved in a 5% glucose solution for injection at a level for the use at a dose of 200 mg/kg as DTX. DTX to be used was prepared by dissolving a commercially available Taxotere injection (for the use at a dose of 100 mg/kg use) with a vehicle solution attached to the product and diluting it with physiological saline at the time of use. After the administration, the major axis (L mm) and minor axis (W mm) of the tumor were measured using a caliper, and the tumor volume was calculated by the formula: (L×W^2)/2.

[2] = tested on: Mouse colon cancer, Colon26; assay: Antitumor effect of compounds 2 and 3 (Test Example 4); details: single i.v. at maximum tolerance dose (conjugates 200 mg/kg as DTX, DTX 100 mg/kg)
Text: Mouse colon cancer, Colon26, maintained by serial subcutaneous subculture in mice was minced into about 2-mm square fragments, and the fragments were subcutaneously transplanted on the dorsal part of female CDF1 mice with a trocar. Seven days after tumor transplantation, the polymer conjugates of the present invention (compound 2 and compound 3) and the control drug (docetaxel, DTX) were each intravenously administered once to the mouse tail vein at the respective maximum tolerance dose. The compound 2 and compound 3 were dissolved in 5% glucose solution for injection to a level for the use at a dose of 200 mg/kg as DTX. DTX to be used was prepared by dissolving a commercially available Taxotere injection (for 100 mg/kg use) in a vehicle solution attached to the product, and diluting it with physiological saline at the time of use. After the administration, the major axis (L mm) and minor axis (W mm) of the tumor were measured using a caliper, and the tumor volume was calculated by the formula: (L×W^2)/2.

[3] = tested on: Mouse colon cancer, Colon26; assay: Antitumor effect of compound 1 (Test Example 3); details: i.v. three times (Day 0, 4, 8), 200 mg/kg as PTX
Method: Mouse colon cancer, Colon26, maintained by serial subcutaneous subculture in mice was minced into about 2-mm square fragments, and the fragments were subcutaneously transplanted on the dorsal part of female CDF1 mice with a trocar. Seven days after tumor transplantation, the polymer conjugate of the present invention (compound 1) or the control drug (paclitaxel, PTX) was administered intravenously to the mouse tail vein three times at an interval of 4 days (Day 0, Day 4 and Day 8 in Table 1) at a dose of 200 mg/kg as PTX. The compound 1 was dissolved in a 5% glucose solution for injection and used. PTX was dissolved in anhydrous ethanol and cremophor (manufactured by Sigma Co., Ltd) and diluted with physiological saline at the time of use. After the administration, the major axis (L mm) and minor axis (W mm) of the tumor were measured using a caliper, and the volume of the tumor was calculated by the formula: (L×W^2)/2.

Work on `CC(=O)O[C@@]12CO[C@@H]1C[C@H](O)[C@@]1(C)C(=O)[C@H](O)C3=C(C)[C@@H](OC(=O)[C@H](O)[C@@H](NC(=O)OC(C)(C)C)c4ccccc4)C[C@@](O)([C@@H](OC(=O)c4ccccc4)[C@H]21)C3(C)C` [DTX, docetaxel] yielded a relative tumor volume ([1]; Day 0 after administration) of 1.00, a relative tumor volume ([1]; Day 3 after administration) of 1.17 and a relative tumor volume ([1]; Day 5 after administration) of 1.17. The relative tumor volume ([1]; Day 7 after administration) was 2.17, the relative tumor volume ([1]; Day 10 after administration) was 5.75 and the relative tumor volume ([2]; Day 0 after administration) was 1.00. The relative tumor volume ([2]; Day 2 after administration) was 1.61, the relative tumor volume ([2]; Day 4 after administration) was 1.57 and the relative tumor volume ([2]; Day 7 after administration) was 2.30. It also gave a relative tumor volume ([2]; Day 10 after administration) of 5.85.

For `CC(=O)O[C@H]1C(=O)[C@@]2(C)[C@H]([C@H](OC(=O)c3ccccc3)[C@]3(O)C[C@H](OC(=O)[C@H](O)[C@@H](NC(=O)c4ccccc4)c4ccccc4)C(C)=C1C3(C)C)[C@]1(OC(C)=O)CO[C@@H]1C[C@@H]2O` [Paclitaxel, paclitaxel], the relative tumor volume ([3]; Day 0 after administration initiation) was 1, the relative tumor volume ([3]; Day 4 after administration initiation) was 3.28 and the relative tumor volume ([3]; Day 8 after administration initiation) was 4.75. It also gave a relative tumor volume ([3]; Day 11 after administration initiation) of 4.07.
